{"source": "PubChem BioAssay AID328", "about": "(DTP/NCI, 2004)", "system": "BDF1 mice, P388 leukemia ip, median survival T/C", "assay": "NCI In Vivo Anticancer Drug Screen. Data for tumor model P388 Leukemia (intraperitoneal) in B6D2F1 (BDF1) mice", "settings": "endpoint: median survival time, higher = longer survival", "summary_of_the_method": "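Compound-treated tumour-bearing mice were compared with vehicle-treated controls. Survival was recorded, and the value is the treated-group measurement divided by the control-group measurement (T/C).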", "key": {"[1]": {"settings": "dose: 50.0 mg/kg/injection, schedule: Q04DX003 (ip), vehicle: saline with Tween-80"}, "[2]": {"settings": "dose: 100.0 mg/kg/injection, schedule: Q04DX003 (ip), vehicle: saline with Tween-80"}, "[3]": {"settings": "dose: 200.0 mg/kg/injection, schedule: Q04DX003 (ip), vehicle: saline with Tween-80"}, "[4]": {"settings": "dose: 100.0 mg/kg/injection, schedule: Q01DX009 (ip), vehicle: Klucel (hydroxypropylcellulose) (HPC)"}, "[5]": {"settings": "dose: 400.0 mg/kg/injection, schedule: Q04DX003 (ip), vehicle: saline with Tween-80"}}, "note": "Several values for one entry are separate records, joined by “and”; a condition that tells them apart may be missing. Equal values may be shown once. Toxic doses and inconclusive results are not listed.", "data": [{"compound": "O=[N+]([O-])c1ccc(N2CCN(c3ccccc3)CC2)c2c1no[n+]2[O-]", "values": [{"measurement": "T/C", "setting": "dose: 75.0 mg/kg/injection, schedule: Q04DX003 (ip), vehicle: saline with Tween-80", "result": "108 % of control"}, {"measurement": "T/C", "setting": "dose: 150.0 mg/kg/injection, schedule: Q04DX003 (ip), vehicle: saline with Tween-80", "result": "111 % of control"}]}, {"compound": "CCc1oc(=O)c(Cc2c(O)cc(O)c3c2OC(c2ccccc2)CC3=O)c(O)c1C", "note": "(stereo not given)", "values": [{"measurement": "T/C", "setting": "dose: 4.0 mg/kg/injection, schedule: Q01DX009 (ip), vehicle: Klucel (hydroxypropylcellulose) (HPC)", "result": "95 % of control"}, {"measurement": "T/C", "setting": "dose: 8.0 mg/kg/injection, schedule: Q01DX009 (ip), vehicle: Klucel (hydroxypropylcellulose) (HPC)", "result": "100 % of control"}, {"measurement": "T/C", "setting": "dose: 16.0 mg/kg/injection, schedule: Q01DX009 (ip), vehicle: Klucel (hydroxypropylcellulose) (HPC)", "result": "93 % of control"}, {"measurement": "T/C", "setting": "dose: 32.0 mg/kg/injection, schedule: Q01DX009 (ip), vehicle: Klucel (hydroxypropylcellulose) (HPC)", "result": "93 % of control"}]}, {"compound": "CCOC(=O)NC1CCC2c3ccccc3C([N+](=O)[O-])(C1)c1ccccc12", "note": "(stereo not given)", "values": [{"measurement": "T/C", "setting": "[1]", "result": "100 % of control"}, {"measurement": "T/C", "setting": "[2]", "result": "104 % of control"}, {"measurement": "T/C", "setting": "[3]", "result": "100 % of control"}]}, {"compound": "CCn1c2ccc([N+](=O)[O-])cc2c2c([N+](=O)[O-])cccc21", "values": [{"measurement": "T/C", "setting": "dose: 100.0 mg/kg/injection, schedule: Q01DX001 (ip), vehicle: saline with Tween-80", "result": "110 % of control"}, {"measurement": "T/C", "setting": "dose: 200.0 mg/kg/injection, schedule: Q01DX001 (ip), vehicle: saline with Tween-80", "result": "100 % of control"}, {"measurement": "T/C", "setting": "dose: 400.0 mg/kg/injection, schedule: Q01DX001 (ip), vehicle: saline with Tween-80", "result": "94 % of control"}]}, {"compound": "CCCCCCCCCCCCCCCCCCOC(=O)Cc1ccc(N(CCCl)CCCl)cc1", "values": [{"measurement": "T/C", "setting": "dose: 50.0 mg/kg/injection, schedule: Q04DX002 (ip), vehicle: Klucel (hydroxypropylcellulose) (HPC)", "result": "123 % of control"}, {"measurement": "T/C", "setting": "dose: 66.0 mg/kg/injection, schedule: Q01DX007 (ip), vehicle: Klucel (hydroxypropylcellulose) (HPC)", "result": "153 % of control"}, {"measurement": "T/C", "setting": "dose: 100.0 mg/kg/injection, schedule: Q01DX007 (ip), vehicle: Klucel (hydroxypropylcellulose) (HPC)", "result": "165 % of control"}, {"measurement": "T/C", "setting": "[4]", "result": "150 % of control"}, {"measurement": "T/C", "setting": "dose: 100.0 mg/kg/injection, schedule: Q04DX002 (ip), vehicle: Klucel (hydroxypropylcellulose) (HPC)", "result": "104 % of control"}, {"measurement": "T/C", "setting": "dose: 100.0 mg/kg/injection, schedule: Q04DX003 (ip), vehicle: Klucel (hydroxypropylcellulose) (HPC)", "result": "113 % of control"}, {"measurement": "T/C", "setting": "dose: 150.0 mg/kg/injection, schedule: Q01DX007 (ip), vehicle: Klucel (hydroxypropylcellulose) (HPC)", "result": "173 % of control"}, {"measurement": "T/C", "setting": "dose: 180.0 mg/kg/injection, schedule: Q04DX003 (ip), vehicle: saline with Tween-80", "result": "100 % of control"}, {"measurement": "T/C", "setting": "dose: 200.0 mg/kg/injection, schedule: Q04DX003 (ip), vehicle: Klucel (hydroxypropylcellulose) (HPC)", "result": "118 % of control"}, {"measurement": "T/C", "setting": "dose: 400.0 mg/kg/injection, schedule: Q01DX009 (ip), vehicle: Klucel (hydroxypropylcellulose) (HPC)", "result": "123 % of control"}, {"measurement": "T/C", "setting": "dose: 400.0 mg/kg/injection, schedule: Q04DX002 (ip), vehicle: Klucel (hydroxypropylcellulose) (HPC)", "result": "180 % of control"}, {"measurement": "T/C", "setting": "dose: 400.0 mg/kg/injection, schedule: Q04DX003 (ip), vehicle: Klucel (hydroxypropylcellulose) (HPC)", "result": "250 % of control and 159 % of control"}, {"measurement": "T/C", "setting": "[5]", "result": "166 % of control"}, {"measurement": "T/C", "setting": "dose: 600.0 mg/kg/injection, schedule: Q04DX003 (ip), vehicle: Klucel (hydroxypropylcellulose) (HPC)", "result": "208 % of control"}, {"measurement": "T/C", "setting": "dose: 600.0 mg/kg/injection, schedule: Q04DX003 (ip), vehicle: saline with Tween-80", "result": "150 % of control"}]}, {"compound": "CCO/C=C1\\SC(=S)N(c2ccc(C(=O)O)cc2)C1=O", "values": [{"measurement": "T/C", "setting": "dose: 11.0 mg/kg/injection, schedule: Q01DX009 (ip), vehicle: saline", "result": "104 % of control"}, {"measurement": "T/C", "setting": "dose: 25.0 mg/kg/injection, schedule: Q01DX009 (ip), vehicle: saline", "result": "122 % of control"}, {"measurement": "T/C", "setting": "dose: 37.5 mg/kg/injection, schedule: Q01DX009 (ip), vehicle: saline", "result": "100 % of control"}, {"measurement": "T/C", "setting": "dose: 100.0 mg/kg/injection, schedule: Q01DX009 (ip), vehicle: saline with Tween-80", "result": "116 % of control"}]}, {"compound": "C=CCSc1nc2ccccc2c(=O)n1-c1cc(OC)c(Cl)cc1OC", "values": [{"measurement": "T/C", "setting": "dose: 50.0 mg/kg/injection, schedule: Q01DX009 (ip), vehicle: Klucel (hydroxypropylcellulose) (HPC)", "result": "88 % of control"}, {"measurement": "T/C", "setting": "[4]", "result": "96 % of control"}]}, {"compound": "CCN(C)c1ccc(/C=C/c2ccnc3ccccc23)cc1", "values": [{"measurement": "T/C", "setting": "dose: 12.5 mg/kg/injection, schedule: Q01DX009 (ip), vehicle: saline with Tween-80", "result": "115 % of control"}, {"measurement": "T/C", "setting": "dose: 25.0 mg/kg/injection, schedule: Q01DX009 (ip), vehicle: saline with Tween-80", "result": "91 % of control"}, {"measurement": "T/C", "setting": "dose: 50.0 mg/kg/injection, schedule: Q01DX009 (ip), vehicle: saline with Tween-80", "result": "99 % of control"}]}, {"compound": "O=C(O)CNC(CSCc1ccccc1)CSCc1ccccc1", "values": [{"measurement": "T/C", "setting": "dose: 25.0 mg/kg/injection, schedule: Q04DX003 (ip), vehicle: saline with Tween-80", "result": "101 % of control"}, {"measurement": "T/C", "setting": "dose: 50.0 mg/kg/injection, schedule: Q01DX009 (ip), vehicle: saline", "result": "93 % of control"}, {"measurement": "T/C", "setting": "[1]", "result": "106 % of control"}, {"measurement": "T/C", "setting": "dose: 100.0 mg/kg/injection, schedule: Q01DX009 (ip), vehicle: saline", "result": "112 % of control"}, {"measurement": "T/C", "setting": "[2]", "result": "98 % of control"}, {"measurement": "T/C", "setting": "dose: 200.0 mg/kg/injection, schedule: Q01DX009 (ip), vehicle: saline", "result": "111 % of control"}, {"measurement": "T/C", "setting": "[3]", "result": "97 % of control"}, {"measurement": "T/C", "setting": "dose: 400.0 mg/kg/injection, schedule: Q01DX009 (ip), vehicle: saline", "result": "116 % of control"}, {"measurement": "T/C", "setting": "[5]", "result": "97 % of control"}]}]}
